Assay results reported in ChEMBL document CHEMBL1201862, “PubChem BioAssay data set” (2004).
Active and inactive are the calls of the source. For most assays here, no stated cut-off is given here; in the data, actives have a measured EC50 and inactives only a lower limit.

How the values were obtained:
cells = assay type: functional
[1] = test system: Streptococcus sp. 'group A'; test: growth inhibition of control SK(-) GAS strain, dose response, counter-screen for streptokinase expression inhibitor project, luminescence, kanamycin, BacTiterGlo, confirmation (AID 1900); assay type: functional, organism-based
[2] = Luminescence Cell-Based Dose Retest to Confirm Inhibitors of Cancer Stem Cells. [Related pubchem assays (depositor defined):AID2717, AID2721]; assay type: functional; settings: Homo sapiens
Streptokinase A = biological target: T1, Streptokinase A (Streptococcus pyogenes serotype M1, UniProt P10520); test: S. pyogenes streptokinase expression inhibitors, potency, dose response, plasminogen activation absorbance, OD405 (AID 1914); assay type: functional, Streptococcus pyogenes M1 GAS;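 further: secreted streptokinase activity via plasminogen activation per viability signal from cell pellet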
T1 sequence (P10520 whole entry): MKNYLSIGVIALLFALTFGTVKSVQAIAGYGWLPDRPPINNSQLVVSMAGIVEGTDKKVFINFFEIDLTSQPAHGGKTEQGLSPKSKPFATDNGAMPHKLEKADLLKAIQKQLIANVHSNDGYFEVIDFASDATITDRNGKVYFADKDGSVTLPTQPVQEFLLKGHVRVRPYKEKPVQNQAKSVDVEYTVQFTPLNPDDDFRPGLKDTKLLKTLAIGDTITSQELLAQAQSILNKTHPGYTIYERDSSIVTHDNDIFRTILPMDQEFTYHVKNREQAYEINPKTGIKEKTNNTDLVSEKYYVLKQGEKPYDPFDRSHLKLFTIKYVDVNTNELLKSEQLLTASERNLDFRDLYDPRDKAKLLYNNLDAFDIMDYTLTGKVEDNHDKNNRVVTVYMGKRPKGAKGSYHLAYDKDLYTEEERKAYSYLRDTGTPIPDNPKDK

Streptococcus = test: Group A Streptococcus viability loss, dose response, counter-screen for streptokinase expression inhibitor project, luminescence, BacTiterGlo (AID 1915); assay type: functional, organism-based;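 further: potency for reduction of bacterial viability or growth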
[3] = inhibitors of intracellular T. cruzi replication, confirmation, NIH3T3 host cells, beta-gal luminescence (AID 2044); assay type: functional, cell-based;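 further: intracellular parasites grown in NIH/3T3 mouse fibroblasts as host cells; luminescent beta-galactosidase reporter signal from transgenic T. cruzi replicating inside host cells; inhibitors lower the luminescence signal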
[4] = cytotoxicity toward NIH3T3 fibroblasts, dose response, counter-screen, cell-based, ATP luminescence, mouse fibroblasts (AID 2010); assay type: functional;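 further: cells exposed to compound for about 90 hours before reading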
INS1 = test: beta cell apoptosis inhibitors, cytokine rescue, dose response, luminescence, retest (AID 449756); assay type: functional, cell-based; settings: Rattus norvegicus;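 further: cell death triggered by IL-1 beta plus TNF-alpha plus IFN-gamma mixture; protective hits raise ATP signal compared with cytokine alone wells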
[5] = biological target: T2, Corticotropin-releasing factor receptor 2/Corticotropin-releasing factor-binding protein (Homo sapiens, UniProt P24387+Q13324); test: Dose Response confirmation of uHTS hits for small molecule antagonists of the CRF-binding protein and CRF-R2 receptor complex.; assay type: functional; settings: read-out: IC50_Mean
T2 sequence (Q13324 whole entry): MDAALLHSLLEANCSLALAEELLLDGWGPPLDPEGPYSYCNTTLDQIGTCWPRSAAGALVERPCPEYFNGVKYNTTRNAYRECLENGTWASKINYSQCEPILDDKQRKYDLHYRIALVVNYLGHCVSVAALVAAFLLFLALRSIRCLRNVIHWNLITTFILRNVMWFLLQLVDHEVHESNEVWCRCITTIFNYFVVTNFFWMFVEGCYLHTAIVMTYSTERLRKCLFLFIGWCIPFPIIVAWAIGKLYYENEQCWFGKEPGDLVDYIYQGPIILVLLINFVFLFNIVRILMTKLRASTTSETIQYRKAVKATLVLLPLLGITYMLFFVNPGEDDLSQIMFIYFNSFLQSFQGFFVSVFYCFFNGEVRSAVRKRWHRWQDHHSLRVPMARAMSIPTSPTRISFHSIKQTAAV
T2 sequence (P24387 whole entry): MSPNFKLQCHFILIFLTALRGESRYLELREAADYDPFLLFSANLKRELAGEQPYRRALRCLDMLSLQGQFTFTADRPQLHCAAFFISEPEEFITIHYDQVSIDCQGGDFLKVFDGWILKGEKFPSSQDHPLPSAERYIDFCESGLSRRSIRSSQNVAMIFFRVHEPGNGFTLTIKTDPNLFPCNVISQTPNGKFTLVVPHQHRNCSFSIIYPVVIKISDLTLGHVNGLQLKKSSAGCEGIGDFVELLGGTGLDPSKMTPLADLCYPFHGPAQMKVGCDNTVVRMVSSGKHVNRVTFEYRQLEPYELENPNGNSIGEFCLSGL

[6] = biological target: T2, Corticotropin-releasing factor receptor 2/Corticotropin-releasing factor-binding protein; test: activators of CRF receptor 2 with binding protein – uHTS hits, confirmation (AID 602473); assay type: functional; settings: read-out: EC50_Mean
[7] = biological target: T3, Heat shock factor protein 1 (Mus musculus, UniProt P38532); test: inhibition of MG132-induced HSE-luciferase signal, confirmation, cell-based, NIH3T3, luminescence, dose retest (AID 2382); assay type: functional;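 further: NIH3T3 fibroblasts with HSF1-driven luciferase reporter stressed by proteasome inhibitor MG132; luminescence from HSF1-driven luciferase expression after 8 hours of MG132 stress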
T3 sequence (P38532 whole entry): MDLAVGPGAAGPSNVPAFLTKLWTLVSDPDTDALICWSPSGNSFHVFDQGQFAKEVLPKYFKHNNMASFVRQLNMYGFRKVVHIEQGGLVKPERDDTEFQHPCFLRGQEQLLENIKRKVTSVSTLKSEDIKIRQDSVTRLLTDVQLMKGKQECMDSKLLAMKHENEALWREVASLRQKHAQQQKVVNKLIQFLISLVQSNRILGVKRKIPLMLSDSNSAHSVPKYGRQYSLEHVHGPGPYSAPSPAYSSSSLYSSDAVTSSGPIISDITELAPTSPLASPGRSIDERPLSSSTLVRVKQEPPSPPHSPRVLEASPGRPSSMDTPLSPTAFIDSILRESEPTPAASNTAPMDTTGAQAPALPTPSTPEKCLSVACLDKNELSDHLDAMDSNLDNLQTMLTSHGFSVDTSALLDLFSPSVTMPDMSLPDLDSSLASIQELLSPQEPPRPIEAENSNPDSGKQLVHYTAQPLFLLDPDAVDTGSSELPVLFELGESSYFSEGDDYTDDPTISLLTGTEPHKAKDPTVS

[8] = biological target: T3, Heat shock factor protein 1; test: HSF1 potentiators in luciferase reporter cells, confirmation, cell-based, NIH3T3, luminescence, dose retest (AID 435004); assay type: functional;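 further: stress induced by proteasome inhibitor MG132 added 30 min after compound; luciferase reporter driven by HSF1 response element in NIH3T3 cells; actives raise luminescence as potentiators of the MG132 stress response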
[9] = Luminescence Cell-Based Dose Response HTS to Identify Activators of Luciferase Translation or Activity in H4 […] Cells. [Related pubchem assays: 1829 (Project Summary), 1814 (Primary HTS)]; assay type: functional
H4 = test: Luminescence Cell-Based Dose Response HTS to Identify Activators of 5'UTR Stem-Loop Driven Prion Protein mRNA Translation in H4 Neuroglioblastoma Cells. [Related pubchem assays: 1829 (Project Summary), 1814 (Primary HTS)]; assay type: functional; settings: Homo sapiens
[10] = Luminescence Cell-Based Dose Confirmation HTS to Identify Activators of 5'UTR Stem-Loop Driven Alpha-Synuclein mRNA Translation in H4 Neuroglioblastoma Cells. [Related pubchem assays: 1829 (Project Summary), 1814 (Primary HTS)]; assay type: functional
Paired box protein Pax-8 = Paired box protein Pax-8 (Homo sapiens, UniProt Q06710); test: inhibitors of PAX8-driven TPO luciferase reporter, dose response, RMG-I cells, cherry-pick (AID 687027); assay type: functional, cell-based;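 further: luciferase reporter driven by Pax8 target thyroperoxidase promoter measured by SteadyGlo luminescence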
Paired box protein Pax-8, sequence (Q06710 whole entry): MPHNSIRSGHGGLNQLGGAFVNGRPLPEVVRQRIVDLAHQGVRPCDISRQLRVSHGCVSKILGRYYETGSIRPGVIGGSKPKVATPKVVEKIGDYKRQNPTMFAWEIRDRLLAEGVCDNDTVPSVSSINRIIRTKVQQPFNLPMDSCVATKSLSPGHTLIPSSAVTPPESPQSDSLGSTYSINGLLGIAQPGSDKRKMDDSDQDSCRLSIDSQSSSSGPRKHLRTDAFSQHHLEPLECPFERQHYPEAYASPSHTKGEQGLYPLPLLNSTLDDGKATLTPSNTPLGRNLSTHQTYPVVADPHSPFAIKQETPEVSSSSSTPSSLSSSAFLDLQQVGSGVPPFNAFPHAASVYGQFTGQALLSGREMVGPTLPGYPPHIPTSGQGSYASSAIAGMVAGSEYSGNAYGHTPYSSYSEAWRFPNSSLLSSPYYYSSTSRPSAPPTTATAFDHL

Cytochrome P450 2C9 = Cytochrome P450 2C9 (Homo sapiens, UniProt P11712)
Cytochrome P450 2C9, sequence (P11712 whole entry): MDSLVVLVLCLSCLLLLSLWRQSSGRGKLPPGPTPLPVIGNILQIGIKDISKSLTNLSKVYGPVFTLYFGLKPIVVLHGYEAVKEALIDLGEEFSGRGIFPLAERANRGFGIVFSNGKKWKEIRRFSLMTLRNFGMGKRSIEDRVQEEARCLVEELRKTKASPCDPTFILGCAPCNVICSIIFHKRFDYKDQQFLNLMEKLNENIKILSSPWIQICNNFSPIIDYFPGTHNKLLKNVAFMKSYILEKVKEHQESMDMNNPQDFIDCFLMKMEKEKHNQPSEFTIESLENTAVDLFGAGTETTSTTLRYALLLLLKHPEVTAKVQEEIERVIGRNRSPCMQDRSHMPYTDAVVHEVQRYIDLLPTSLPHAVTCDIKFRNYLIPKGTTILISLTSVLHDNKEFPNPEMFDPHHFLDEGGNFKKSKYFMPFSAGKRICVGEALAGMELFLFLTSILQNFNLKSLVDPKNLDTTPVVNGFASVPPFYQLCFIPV

O=C(Nc1ccc(Cl)c(Cl)c1)O/N=C/c1ccncc1
IC50 (cells): 9.54 µM (active) | EC50 [1]: 1.75 µM (active) | AC50 [2]: 5.98 µM (active) | EC50 (Streptokinase A): > 150 µM (not active) | EC50 (Streptococcus): 36.5 µM (active)

COc1ccc(-[n+]2c(-c3ccc(Br)cc3)cn3c2CCCCC3)cc1
EC50 [3]: 0.552 µM (active) | EC50 [4]: > 60 µM (not active) | AC50 (INS1): 1.15 µM (active)

Cc1cc(S(=O)(=O)Nc2ccc(C(=O)NCC(C)(C)N3CCOCC3)cc2)ccc1F
IC50 [5]: > 47.1 µM (inactive) | EC50 [6]: > 53 µM (inactive) | EC50 [7]: > 195 µM (not active)

O=C1N=C(N/N=C/c2ccc(F)cc2)SC1c1ccccc1 (stereo not drawn)
IC50 [5]: > 47.1 µM (inactive) | EC50 [6]: > 53 µM (inactive)

COc1ccc(/C=C/C(=O)NCCCc2ccccc2)cc1
EC50 [8]: > 260 µM (inactive)

Cc1cc(Cl)ccc1C(=O)C1CCCN(C(=O)c2cnsn2)C1 (stereo not drawn)
EC50 [8]: > 260 µM (inactive)

O=c1[nH]c2ccccc2n1CCC1CCCCC1
EC50 [8]: > 260 µM (inactive)

Cc1nc2cc(NC(=O)c3ccc(S(=O)(=O)N(C)c4ccccc4)cc3)ccc2o1
EC50 [9]: 23.9 µM (active) | EC50 (H4): 15.1 µM (active) | EC50 [10]: 26 µM (active)

CSC1=NCCN1C(=O)Cc1ccc(Cl)cc1
IC50 [5]: > 47.1 µM (inactive) | EC50 [6]: > 53 µM (inactive)

Nc1c(C(=O)N2CCOCC2)sc2nc3c(cc12)CCC3
IC50 [5]: > 47.1 µM (inactive) | EC50 [6]: > 53 µM (inactive)

CO/C(O)=C1\C(C)=NC(=S)NC1c1ccc(-c2cccc(Cl)c2)o1 (stereo not drawn)
EC50 [8]: > 260 µM (inactive)

Cc1nc2ccc(Br)cc2c(=O)n1Cc1cccs1
EC50 [8]: > 260 µM (inactive)

OC1(C(F)(F)F)CC(O)(C(F)(F)F)n2nc(-c3ccccc3)cc2N1 (stereo not drawn)
EC50 [9]: > 120 µM (not active) | EC50 (H4): 11 µM (active) | EC50 [10]: > 120 µM (not active)

Cc1cc(N(C)C)c(C#N)c(NCc2ccccc2)n1
EC50 [8]: > 260 µM (inactive)

C[C@@H]1CCCCO[C@@H](CN(C)Cc2ccc(C(F)(F)F)cc2)[C@H](C)CN([C@@H](C)CO)C(=O)c2cc(NS(=O)(=O)c3ccccc3)ccc2O1
AC50 (Paired box protein Pax-8): 4.66 µM (active)

CCCCON1C(=O)c2cccc3cccc(c23)C1=O
IC50 [5]: > 47.1 µM (inactive) | EC50 [6]: > 53 µM (inactive)

CC(=O)/N=c1/sc(S(N)(=O)=O)nn1C [METHAZOLAMIDE]
AC50 (Cytochrome P450 2C9): 12.6 µM (inconclusive) | IC50 [5]: > 47.1 µM (inactive) | EC50 [6]: > 53 µM (inactive)

CCc1nnc(NC(=O)c2ccc(-c3ccccc3Cl)o2)s1
EC50 [9]: 6.73 µM (active) | EC50 (H4): 18.9 µM (active) | EC50 [10]: > 120 µM (not active)
